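Compound exposure: 48 hours, 5 concentrations, 96-well plates. TGI: concentration producing complete growth inhibition.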
Tests used:
Experiment in all cases: NCI-60 cell line screen, 48 h
KM12 colon = test system: KM12 colon
SR leukemia = test system: SR leukemia
SF-295 CNS = test system: SF-295 CNS
MOLT-4 leukemia = test system: MOLT-4 leukemia
CCRF-CEM leukemia = test system: CCRF-CEM leukemia
MCF7 breast = test system: MCF7 breast
TK-10 renal = test system: TK-10 renal
IGROV1 ovarian = test system: IGROV1 ovarian
NCI-H23 lung = test system: NCI-H23 lung
A549 NSCLC = test system: A549 NSCLC
SK-MEL-28 melanoma = test system: SK-MEL-28 melanoma

| SMILES | TGI (KM12 colon) | TGI (SR leukemia) | TGI (SF-295 CNS) | TGI (MOLT-4 leukemia) | TGI (CCRF-CEM leukemia) | TGI (MCF7 breast) | TGI (TK-10 renal) | TGI (IGROV1 ovarian) | TGI (NCI-H23 lung) | TGI (A549 NSCLC) | TGI (SK-MEL-28 melanoma) |
| --- | --- | --- | --- | --- | --- | --- | --- | --- | --- | --- | --- |
| CCOC(=O)c1cn2c(n1)sc1cc([N+](=O)[O-])ccc12 | > 100 µM | > 100 µM | > 100 µM | > 100 µM | > 100 µM | > 100 µM | > 100 µM | > 100 µM | > 100 µM | > 100 µM | > 100 µM |
| C[N+](C)(C)CC(=O)N/N=C\c1c(O)ccc2ccccc12 | > 100 µM | > 100 µM | > 100 µM | 51.7 µM | 76.1 µM | > 100 µM | > 100 µM | > 100 µM | > 100 µM | > 100 µM | > 100 µM |
| COCc1nc(C#N)c(N)o1 | > 10 µM | > 10 µM | > 10 µM | > 10 µM | > 10 µM | > 10 µM | > 10 µM | > 10 µM | > 10 µM | > 10 µM | > 10 µM |
| O=C1OCC2=C1C(c1ccc(Cl)cc1)c1cc3c(cc1O2)OCO3 (configuration not stated) | > 100 µM | > 31.6 µM | > 100 µM | 46.3 µM | > 100 µM | > 27.2 µM | > 100 µM | > 100 µM | > 100 µM | > 100 µM | > 100 µM |
| O=C1C(CN2CCCC2)CCC1CN1CCCC1 (configuration not stated) | > 100 µM | > 100 µM | > 100 µM | 39.9 µM | > 60.1 µM | 39.3 µM | 32.6 µM | > 82.3 µM | 38.2 µM | > 100 µM | 33.9 µM |
| COc1ccccc1Nc1nc(N)nc(N)c1N | > 100 µM | 45.6 µM | 68.5 µM | 31.6 µM | 50.8 µM | > 100 µM | > 100 µM | > 100 µM | > 100 µM | > 100 µM | > 100 µM |
| C[C@H]1CC(=O)C[C@@H]2CC[C@@H]3[C@H](CC[C@]4(C)C(OC(=O)c5cccc6c(=O)c7ccccc7[nH]c56)CC[C@@H]34)[C@]21C (some centres not stated) | > 100 µM | 21.6 µM | > 100 µM | 30.2 µM | 73.2 µM | > 100 µM | > 100 µM | > 100 µM | > 100 µM | > 100 µM | > 100 µM |
| CCOP(=O)(OCC)/C(F)=C/c1ccc(F)cc1 | > 100 µM | > 100 µM | > 100 µM | > 100 µM | > 100 µM | > 100 µM | > 100 µM | > 100 µM | > 100 µM | > 100 µM | > 100 µM |
| Nc1nc(NCc2ccccc2)cc(NCc2ccccc2)n1 | 27.9 µM | > 100 µM | 69 µM | > 100 µM | > 100 µM | 6.36 µM | 22.3 µM | 23.9 µM | 20 µM | 92 µM | > 100 µM |
| CC(C)CCNC(=O)c1ccc(CNC(=O)/C=C/c2ccc3c(c2)-c2ccccc2C3)cc1 | > 100 µM | > 100 µM | > 100 µM | > 100 µM | > 100 µM | > 100 µM | > 100 µM | > 100 µM | > 100 µM | > 100 µM | > 100 µM |
| Cc1ccc(Nc2nc3ccccc3nc2NS(=O)(=O)c2ccc(N)cc2)cc1 | 94.3 µM | > 100 µM | > 100 µM | 81.8 µM | 70.7 µM | > 100 µM | > 100 µM | > 100 µM | 16.2 µM | > 100 µM | > 100 µM |
| CCOC(=O)c1sc(N)nc1N1CCCC1 | > 100 µM | > 100 µM | > 100 µM | > 100 µM | > 100 µM | > 100 µM | > 100 µM | > 100 µM | > 100 µM | > 100 µM | > 100 µM |
| O=c1cc(O)c1=O | > 100 µM | > 100 µM | > 100 µM | > 100 µM | > 100 µM | > 100 µM | > 100 µM | > 100 µM | > 100 µM | > 100 µM | > 100 µM |
| COc1cc(Nc2nc(NS(=O)(=O)c3cc(C)c(Cl)cc3S)n[nH]2)cc(OC)c1OC | > 100 µM | > 100 µM | > 100 µM | > 100 µM | > 100 µM | > 100 µM | > 100 µM | > 100 µM | > 100 µM | > 100 µM | > 100 µM |
| COc1cccc(O)c1-c1cc(=O)c2c(O)c(OC)c(OC)c(OC)c2o1 | 77.8 µM | 40.1 µM | 76.6 µM | 97.7 µM | > 100 µM | 77.7 µM | > 100 µM | > 100 µM | 85.5 µM | > 100 µM | > 100 µM |
| O=C1/C(=C/c2ccc(Cl)cc2)NC(=S)N1CN1CCCCC1 | > 100 µM | > 100 µM | > 100 µM | > 100 µM | 78.2 µM | 82.1 µM | > 100 µM | > 100 µM | > 100 µM | > 100 µM | > 100 µM |
| O=C(O)CN1CCN2CCOCCN(CC1)CCN(CC(=O)O)CC2 | > 100 µM | > 100 µM | > 100 µM | > 100 µM | > 100 µM | > 100 µM | > 100 µM | > 100 µM | > 100 µM | > 100 µM | > 100 µM |
